22 compounds from PubChem BioAssay AID330 (DTP/NCI, 2004) can be followed below.

Values joined by “and” are separate entries in the source; they are usually repeats but may differ in a detail not shown here. Equal entries are not always repeated. Inconclusive results and toxic doses are left out.

In this experiment the test system is P388 leukemia ip, CD2F1 mice, survival T/C. Nature of the experiment: NCI In Vivo Anticancer Drug Screen. Data for tumor model P388 Leukemia (intraperitoneal) in CD2F1 (CDF1) mice. The settings on record: endpoint: median survival time, higher = longer survival. The procedure, abridged: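 Mice carrying the transplanted tumor received test compound or vehicle. Survival was recorded in each group, and the value is the treated-group measurement divided by that of the vehicle-treated control group.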

Setting [1] is: dose: 12.5 mg/kg/injection, schedule: Q01DX009 (ip), vehicle: Klucel (hydroxypropylcellulose) (HPC).
Where [2] appears, read: dose: 25.0 mg/kg/injection, schedule: Q01DX009 (ip), vehicle: Klucel (hydroxypropylcellulose) (HPC).
The mark [3] stands for this setting: dose: 50.0 mg/kg/injection, schedule: Q01DX009 (ip), vehicle: Klucel (hydroxypropylcellulose) (HPC).
Setting [4] is: dose: 50.0 mg/kg/injection, schedule: Q01DX005 (ip), vehicle: saline.
[5] abbreviates: dose: 100.0 mg/kg/injection, schedule: Q01DX005 (ip), vehicle: saline.
Setting [6] is: dose: 150.0 mg/kg/injection, schedule: Q01DX005 (ip), vehicle: saline.
Where [7] appears, read: dose: 60.0 mg/kg/injection, schedule: Q01DX005 (ip), vehicle: saline with Tween-80.
Setting [8] is: dose: 120.0 mg/kg/injection, schedule: Q01DX005 (ip), vehicle: saline with Tween-80.
Setting [9] is: dose: 240.0 mg/kg/injection, schedule: Q01DX005 (ip), vehicle: saline with Tween-80.
Where [10] appears, read: dose: 50.0 mg/kg/injection, schedule: Q01DX005 (ip), vehicle: Klucel (hydroxypropylcellulose) (HPC).
[11] abbreviates: dose: 100.0 mg/kg/injection, schedule: Q01DX005 (ip), vehicle: Klucel (hydroxypropylcellulose) (HPC).
Setting [12] is: dose: 200.0 mg/kg/injection, schedule: Q01DX005 (ip), vehicle: Klucel (hydroxypropylcellulose) (HPC).

With `OCC1OC(O)C(N=Cc2ccc3c(c2)OCO3)C(O)C1O` (configuration not stated), the T/C reads like this: (dose: 50.0 mg/kg/injection, schedule: Q01DX005 (ip), vehicle: saline with Tween-80) 104 % of control; (dose: 100.0 mg/kg/injection, schedule: Q01DX005 (ip), vehicle: saline with Tween-80) 100 % of control; (dose: 200.0 mg/kg/injection, schedule: Q01DX005 (ip), vehicle: saline with Tween-80) 102 % of control.

Turning to `C=CC(=NC(C)(C)C)Nc1ccccc1C`, the T/C reads like this: (dose: 0.79 mg/kg/injection, schedule: Q01DX009 (ip), vehicle: saline) 99 % of control and 103 % of control and 90 % of control; (dose: 1.56 mg/kg/injection, schedule: Q01DX009 (ip), vehicle: saline) 101 % of control and 89 % of control; (dose: 12.5 mg/kg/injection, schedule: Q01DX009 (ip), vehicle: saline) 99 % of control.

As to `CC1=C(C)C(=O)O[C@@H]([C@](C)(O)[C@]2(O)CC[C@@]3(O)[C@@H]4C[C@H]5O[C@]56CC=CC(=O)[C@]6(C)[C@H]4CC[C@]23C)C1`, the T/C reads like this: under setting [1], 109 % of control and 110 % of control; (dose: 12.5 mg/kg/injection, schedule: Q04DX003 (ip), vehicle: Klucel (hydroxypropylcellulose) (HPC)) 122 % of control; under setting [2], 107 % of control and 124 % of control; under setting [3], 100 % of control; (dose: 50.0 mg/kg/injection, schedule: Q04DX003 (ip), vehicle: Klucel (hydroxypropylcellulose) (HPC)) 124 % of control.

Take `Cc1oc2c(C)c3oc(=O)cc(C)c3cc2c1CN1C(=O)c2ccccc2C1=O`: the T/C was 99 % of control (dose: 100.0 mg/kg/injection, schedule: Q05DX002 (ip), vehicle: saline with Tween-80); 92 % of control (dose: 200.0 mg/kg/injection, schedule: Q05DX002 (ip), vehicle: saline with Tween-80); 98 % of control (dose: 400.0 mg/kg/injection, schedule: Q05DX002 (ip), vehicle: saline with Tween-80).

Turning to `COCOc1cc(OCc2ccccc2)ccc1C(=O)/C=C/c1cc2c(cc1OCc1ccccc1)OCO2`, the T/C runs as follows: (dose: 100.0 mg/kg/injection, schedule: Q01DX001 (ip), vehicle: Klucel (hydroxypropylcellulose) (HPC)) 105 % of control; (dose: 200.0 mg/kg/injection, schedule: Q01DX001 (ip), vehicle: Klucel (hydroxypropylcellulose) (HPC)) 102 % of control; (dose: 400.0 mg/kg/injection, schedule: Q01DX001 (ip), vehicle: Klucel (hydroxypropylcellulose) (HPC)) 105 % of control.

Turning to `C=C1C(=O)OC2/C=C(/C)CC/C=C(\C(=O)O)CC/C=C(\C)CCC12` (configuration not stated), the T/C (dose: 100.0 mg/kg/injection, schedule: Q04DX003 (ip), vehicle: saline with Tween-80) is 113 % of control and the T/C (dose: 200.0 mg/kg/injection, schedule: Q04DX003 (ip), vehicle: saline with Tween-80) was 110 % of control.

Consider `O=[N+]([O-])c1cccn2cnnc12`, for which the T/C is, setting by setting: (dose: 50.0 mg/kg/injection, schedule: Q01DX009 (ip), vehicle: saline) 98 % of control; (dose: 100.0 mg/kg/injection, schedule: Q01DX009 (ip), vehicle: saline) 87 % of control.

Consider `CCOS(=O)(=O)CS(C)(=O)=O`, for which the T/C was 118 % of control (dose: 25.0 mg/kg/injection, schedule: Q01DX005 (ip), vehicle: saline); 118 % of control under setting [4]; 160 % of control and 170 % of control under setting [5]; 104 % of control under setting [6].

Take `COC(=O)C1=C2c3cc4c(cc3CCN2C2(O)c3c(ccc(OC)c3OC)C(=O)C12C(=O)OC)OCO4` (configuration not stated): the T/C by setting is: (dose: 50.0 mg/kg/injection, schedule: Q04DX002 (ip), vehicle: saline with Tween-80) 96 % of control; (dose: 100.0 mg/kg/injection, schedule: Q04DX002 (ip), vehicle: saline with Tween-80) 103 % of control; (dose: 200.0 mg/kg/injection, schedule: Q04DX002 (ip), vehicle: saline with Tween-80) 96 % of control.

Take `O=C1/C(=C/c2cccnc2)Cc2ccccc21`: the T/C is, setting by setting: (dose: 12.5 mg/kg/injection, schedule: Q01DX009 (ip), vehicle: other) 103 % of control; (dose: 25.0 mg/kg/injection, schedule: Q01DX009 (ip), vehicle: other) 103 % of control; (dose: 50.0 mg/kg/injection, schedule: Q01DX009 (ip), vehicle: other) 99 % of control; (dose: 100.0 mg/kg/injection, schedule: Q01DX009 (ip), vehicle: other) 99 % of control; (dose: 200.0 mg/kg/injection, schedule: Q01DX009 (ip), vehicle: other) 94 % of control.

As for `O=C(Nc1ccc(S(=O)(=O)F)cc1)/C(=C/c1cccc([N+](=O)[O-])c1)c1ccccc1`, the T/C runs as follows: (dose: 60.0 mg/kg/injection, schedule: Q01DX005 (ip), vehicle: Klucel (hydroxypropylcellulose) (HPC)) 102 % of control; (dose: 120.0 mg/kg/injection, schedule: Q01DX005 (ip), vehicle: Klucel (hydroxypropylcellulose) (HPC)) 98 % of control; (dose: 240.0 mg/kg/injection, schedule: Q01DX005 (ip), vehicle: Klucel (hydroxypropylcellulose) (HPC)) 94 % of control.

Turning to `N=c1nc2ccc3ccccc3c2nn1-c1ccc([N+](=O)[O-])cc1`, the T/C is 108 % of control (dose: 1.5 mg/kg/injection, schedule: Q01DX009 (ip), vehicle: Klucel (hydroxypropylcellulose) (HPC)); 106 % of control (dose: 3.0 mg/kg/injection, schedule: Q01DX009 (ip), vehicle: Klucel (hydroxypropylcellulose) (HPC)); 108 % of control (dose: 6.0 mg/kg/injection, schedule: Q01DX009 (ip), vehicle: Klucel (hydroxypropylcellulose) (HPC)); 103 % of control under setting [1]; 108 % of control under setting [2]; 119 % of control under setting [3].

For the compound `C1CCC2CC3CCCCN3COC2CC1` (configuration not stated), the T/C is 116 % of control under setting [4] and 118 % of control under setting [5].

As to `Cc1ccc(S(=O)(=O)NNC(=O)CCn2[nH]c(=O)c(Cl)c(Cl)c2=O)cc1`, the T/C was 99 % of control under setting [7], 103 % of control under setting [8] and 98 % of control under setting [9].

Regarding `Cc1nc(N)cc(=O)[nH]1`, the T/C by setting is: (dose: 50.0 mg/kg/injection, schedule: Q01DX009 (ip), vehicle: suspension in saline) 89 % of control; (dose: 100.0 mg/kg/injection, schedule: Q01DX009 (ip), vehicle: suspension in saline) 93 % of control; (dose: 200.0 mg/kg/injection, schedule: Q01DX009 (ip), vehicle: suspension in saline) 91 % of control; (dose: 400.0 mg/kg/injection, schedule: Q01DX009 (ip), vehicle: suspension in saline) 101 % of control.

Consider `COc1ccc(N=C(C)c2c(O)n(-c3ccccc3)[nH]c2=O)cc1`, for which the T/C under setting [10] was 101 % of control, the T/C under setting [11] was 104 % of control and the T/C under setting [12] is 99 % of control.

For `O=C1CCC(N2C(=O)c3ccccc3C2=O)C(=O)N1` (configuration not stated), the T/C reads like this: (dose: 50.0 mg/kg/injection, schedule: Q01DX009 (ip), vehicle: saline with Tween-80) 100 % of control; (dose: 100.0 mg/kg/injection, schedule: Q01DX009 (ip), vehicle: saline with Tween-80) 92 % of control.

As to `Cc1ccc(/C=C/C(=O)C(CN(C)C)CN(C)C)cc1C`, the T/C (dose: 6.25 mg/kg/injection, schedule: Q01DX005 (ip), vehicle: saline with Tween-80) is 100 % of control and the T/C (dose: 12.5 mg/kg/injection, schedule: Q01DX005 (ip), vehicle: saline with Tween-80) is 109 % of control.

Take `COc1cccc2c(NCCCCCO[N+](=O)[O-])cc[n+](C)c12`: the T/C under setting [1] is 104 % of control, the T/C under setting [2] is 110 % of control and the T/C under setting [3] was 107 % of control.

As for `COC(=O)CCC1=C(C)c2cc3[nH]c(cc4[nH]c(cc5nc(cc1n2)C(CCC(=O)OC)=C5C)c(C#N)c4C)c(C#N)c3C`, the T/C under setting [10] was 104 % of control, the T/C under setting [11] was 95 % of control and the T/C under setting [12] is 100 % of control.

Consider `CCOC(=O)c1ccc(Nc2nc(NNC(=O)c3ccncc3)nc(Nc3ccc(C)cc3)n2)cc1`, for which the T/C is 99 % of control under setting [7], 99 % of control under setting [8] and 99 % of control under setting [9].

In the case of `O=C[C@@H](CO)O[C@H](C=O)n1cnc2c(=O)[nH]cnc21`, the T/C (dose: 80.0 mg/kg/injection, schedule: Q01DX009 (ip), vehicle: saline) was 166 % of control and 169 % of control; the T/C under setting [6] is 171 % of control; the T/C (dose: 160.0 mg/kg/injection, schedule: Q01DX009 (ip), vehicle: saline) is 187 % of control and 189 % of control and 209 % of control; the T/C (dose: 250.0 mg/kg/injection, schedule: Q01DX005 (ip), vehicle: saline) was 56 % of control; the T/C (dose: 320.0 mg/kg/injection, schedule: Q01DX009 (ip), vehicle: saline) is 100 % of control and 104 % of control.
